{"source": "patent US20040157798A1", "about": "“Drug for use in bone grafting” (priority 2001, published 2004)", "tested_on": "10 mm tibial defect model in rabbits", "test": "10 mm tibial defect model in rabbits with calcium sulphate (Osteoset) cylinder; pQCT scans and radiographs", "assay_type": "in vivo, NZW rabbit", "conditions": "for BMC / BMD / Polar Moment / Total Bone Area: 6 weeks; for Total Bone Area: CT slice at centre of defect", "text": "The following example outlines the process by which the effects of bisphosphonates on potentiating new bone formation in a graft may be observed. In this regard, the effects on bone mineralisation and the mechanical properties are observed in a 10 mm tibial defect model in rabbits.\nThe present experiment uses an 8-week-old NZW rabbit model. A 10 mm gap is surgically removed from the tibiae of the rabbits. The bones are held with a M-100 external fixator.\nCylinders of calcium sulphate (Osteoset) were prepared on the day of surgery. Moulds were prepared using a combination of 1.0 ml and 3.0 ml syringes, and the Osteoset poured into the moulds in a sterile environment. The cylinders were removed from the moulds at 12 minutes, and allowed to dry in air for 90 minutes, followed by final drying in a microwave for 30 seconds. Once dry, the cylinders were formed into a standard dimension of 10 mm length, with an external diameter of 9 mm and with a 3 mm diameter internal core. The cylinders weighed 0.80.9 g. The cylinders were stored in sterile environment until required.\nAt the commencement of the operative procedure 0.15 ml of saline, or 0.15 ml of zoledronic acid (0.05 mg/kg) was adsorbed onto a calcium sulphate cylinder, which was then replaced into the sterile container.\nThe operative field was prepared by shaving with clippers, disinfected with povidone iodine 4% w/v in 70% alcohol. The right tibia was exposed sub-periosteally along its length and four 3 mm Orthofix pins inserted. An M-100 monolateral external fixator (Orthofix S.L.R) was applied. A 10 mm piece of mid-diaphyseal tibia was removed using an oscillating saw, along with the central 10 mm of periosteum. A calcium sulphate cylinder was then placed in the defect, and held by slight compression of the external fixator.\nThe animals were randomised such that at the time of surgery, 24 animals had Osteoset cylinders with saline adsorbed inserted, 12 of whom were given saline-only infusions and 12 of whom were given 0.1 mg/kg zoledronic acid infusion at the time of surgery and again on day 14. A further 12 animals had Osteoset cylinders with 0.15 ml of zoledronic acid (0.05 mg/kg) adsorbed inserted, and given a saline only infusion. Note that in the third leg the zoledronic acid was administered to the site via the cylinder, and not directly.\nAnimals were culled at 28 days (18 animals) and at 42 days (18 animals) with IV pentobarbitone 150 mg/kg.\n[…]. CT scans were performed at 28 days (18 animals) and at 42 days (18 animals) using a Stratec XCT Research SA pQCT scanner.", "key": {"[1]": {"conditions": "IV ZA 0.1 mg/kg at surgery and day 14"}, "[2]": {"conditions": "Local ZA 0.05 mg/kg adsorbed on cylinder"}}, "data": [{"smiles": "O=P(O)(O)C(O)(Cn1ccnc1)P(=O)(O)O", "note": "[ZA, 1-hydroxy-2-[(1H-imidazol-1-yl)ethylidine]bisphosphonic acid]", "values": [{"measurement": "Bone area increase over controls", "setting": "4 weeks, IV ZA group", "value": 131, "unit": "%"}, {"measurement": "Polar moment of inertia increase over controls", "setting": "4 weeks, IV ZA group", "value": 104, "unit": "%"}, {"measurement": "Bone area increase over controls", "setting": "4 weeks, Local ZA group", "value": 216, "unit": "%"}, {"measurement": "Polar moment of inertia increase over controls", "setting": "4 weeks, Local ZA group", "value": 316, "unit": "%"}, {"measurement": "BMC", "setting": "[1]", "value": "45.9 (20.7) mg/mm"}, {"measurement": "BMD", "setting": "[1]", "value": "784.6 (97.7) mg/cm^3"}, {"measurement": "Polar Moment", "setting": "[1]", "value": "442.8 (585.2) mm^4"}, {"measurement": "Total Bone Area", "setting": "IV ZA 0.1 mg/kg infusion at surgery and day 14", "value": "58.0 (23.2) mm^2"}, {"measurement": "Total Bone Area", "setting": "Local ZA 0.05 mg/kg adsorbed on calcium sulphate cylinder", "value": "66.6 (7.9) mm^2"}, {"measurement": "BMC", "setting": "[2]", "value": "45.0 (5.4) mg/mm"}, {"measurement": "BMD", "setting": "[2]", "value": "676.2 (49.3) mg/cm^3"}, {"measurement": "Polar Moment", "setting": "[2]", "value": "1343.1 (254.7) mm^4"}, {"measurement": "Polar moment of inertia increase over controls", "setting": "six weeks, Local ZA group", "value": 40, "unit": "%"}, {"measurement": "Cross sectional area increase over controls", "setting": "six weeks, local bisphosphonate group, not significant", "value": 20, "unit": "%"}]}]}
